Here are results for two compounds from PubChem BioAssay (NCI).

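Where inhibition never reached the appropriate level, the endpoint shown equals the highest concentration tested. Otherwise, values were interpolated linearly from a five-concentration, 48-hour dose response in 96-well plates. GI50 marks 50% less growth. Definition used: TGI = concentration required for complete inhibition of growth.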

Assay in all cases: growth of human tumour cells (NCI), 48 h
For assay [1], the system named is MOLT-4 leukemia.
Assay [2] deals with 786-0 renal.
Assay [3] has as its system OVCAR-8 ovarian.
Assay [4] deals with LOX IMVI melanoma.
The subject of assay [5] is RXF 393 renal.
Assay [6] deals with LXFL 529 NSCLC.
The test system of assay [7] is HOP-18 NSCLC.
Assay [8] has as its system SR leukemia.
The test system of assay [9] is SK-MEL-2 melanoma.
In assay [10] the test system is OVCAR-4 ovarian.

Turning to `O=C(O)C1NCCc2c1[nH]c1ccccc21` (stereo not given), the GI50 in assay [1], in assay [2], in [3], in [8] and in [10] was over 100 µM in each case. Further, the TGI was over 100 µM in [1]; over 100 µM in assay [2]; over 100 µM in [3]; over 100 µM in [4]; over 10 µM in assay [5]; over 100 µM in assay [6]. Also, the TGI in assay [7], in assay [8], in assay [9] and in [10] was over 100 µM each time.
As to `Nc1ncnc(NC2C=C(CO)C(O)C2O)c1[N+](=O)[O-]` (stereo not given), the TGI in assay [1], in assay [2], in assay [3], in assay [4], in assay [5] and in assay [6] was over 100 µM throughout. For the same compound, the TGI in [7], in assay [8], in assay [9] and in assay [10] was over 100 µM in each case.
